We go through five molecules from article PMC10313368 (The Journal of Clinical Investigation, 2023).

The target of series [1] is HIF-1α (Homo sapiens, UniProt Q16665). Put plainly: Immunoblot of HIF-1α accumulation in MIO-M1 cells cultured in hypoxia. The series is classed as cell-based. Details: endogenous in cells; host or cells: MIO-M1. As to conditions: MIO-M1, hypoxia 4 hours; MG-132 10 μM, bortezomib 10 μM, bafilomycin 10 nM. Here is the method: (§1) MIO-M1, HUVECs, and ARPE19 cells were cultured in DMEM with 10% (vol/vol) FBS (Quality Biological) and 1% penicillin/streptomycin (Cellgro). A hypoxic chamber (Coy Laboratory Product Inc.; Two Glove Model) with 5% CO2, 94% N2, and 1% O2 gas concentration at 37°C was used to culture hypoxic cells. The control cells were cultured in an incubator maintained at 37°C, with 21% O2 and 5% CO2. […] Aflibercept was obtained from the Johns Hopkins University Pharmacy.
Chain of HIF-1α (Q16665 whole entry): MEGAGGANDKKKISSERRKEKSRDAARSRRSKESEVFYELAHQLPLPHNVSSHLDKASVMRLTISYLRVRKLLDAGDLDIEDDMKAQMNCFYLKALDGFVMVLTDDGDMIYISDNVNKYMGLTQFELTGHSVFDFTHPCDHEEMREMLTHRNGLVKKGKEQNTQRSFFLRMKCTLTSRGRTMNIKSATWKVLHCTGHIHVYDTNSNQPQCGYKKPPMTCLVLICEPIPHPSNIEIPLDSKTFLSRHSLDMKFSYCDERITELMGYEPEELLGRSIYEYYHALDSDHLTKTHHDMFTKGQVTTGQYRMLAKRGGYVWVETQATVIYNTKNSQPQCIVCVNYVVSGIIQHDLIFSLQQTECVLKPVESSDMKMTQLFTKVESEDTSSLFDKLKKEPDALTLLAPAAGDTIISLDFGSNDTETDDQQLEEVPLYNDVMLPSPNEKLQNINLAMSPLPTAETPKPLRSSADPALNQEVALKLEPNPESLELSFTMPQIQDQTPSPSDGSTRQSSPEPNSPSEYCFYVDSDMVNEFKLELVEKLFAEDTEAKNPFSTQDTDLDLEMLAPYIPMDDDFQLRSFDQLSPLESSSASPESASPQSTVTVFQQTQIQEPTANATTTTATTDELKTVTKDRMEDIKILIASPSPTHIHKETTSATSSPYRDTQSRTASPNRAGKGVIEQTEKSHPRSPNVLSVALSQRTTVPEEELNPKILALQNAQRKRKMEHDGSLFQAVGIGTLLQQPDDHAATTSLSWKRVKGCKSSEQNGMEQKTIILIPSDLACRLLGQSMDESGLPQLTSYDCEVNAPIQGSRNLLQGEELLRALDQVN
(§2) Immunoblot assays. Cells, neurosensory retina, and D120 retinal organoid lysates were subjected
(§3) to 4–15% gradient SDS/PAGE (Invitrogen). Immunoblot (Western blot or WB) assays were
(§4) performed as previously described (1). […]
On the technique in general: In western blotting, separated proteins are transferred to a membrane and probed.

In series [2] the target is HIF-2α (Homo sapiens, UniProt Q99814). Put plainly: Immunoblot of HIF-2α accumulation in MIO-M1 cells cultured in hypoxia. It counts as cell-based. Further details: endogenous in cells; host or cells: MIO-M1. To be noted: MIO-M1, hypoxia 4 hours; MG-132. Here is the method: as §1, §2, §3, §4
Chain of HIF-2α (Q99814 whole entry): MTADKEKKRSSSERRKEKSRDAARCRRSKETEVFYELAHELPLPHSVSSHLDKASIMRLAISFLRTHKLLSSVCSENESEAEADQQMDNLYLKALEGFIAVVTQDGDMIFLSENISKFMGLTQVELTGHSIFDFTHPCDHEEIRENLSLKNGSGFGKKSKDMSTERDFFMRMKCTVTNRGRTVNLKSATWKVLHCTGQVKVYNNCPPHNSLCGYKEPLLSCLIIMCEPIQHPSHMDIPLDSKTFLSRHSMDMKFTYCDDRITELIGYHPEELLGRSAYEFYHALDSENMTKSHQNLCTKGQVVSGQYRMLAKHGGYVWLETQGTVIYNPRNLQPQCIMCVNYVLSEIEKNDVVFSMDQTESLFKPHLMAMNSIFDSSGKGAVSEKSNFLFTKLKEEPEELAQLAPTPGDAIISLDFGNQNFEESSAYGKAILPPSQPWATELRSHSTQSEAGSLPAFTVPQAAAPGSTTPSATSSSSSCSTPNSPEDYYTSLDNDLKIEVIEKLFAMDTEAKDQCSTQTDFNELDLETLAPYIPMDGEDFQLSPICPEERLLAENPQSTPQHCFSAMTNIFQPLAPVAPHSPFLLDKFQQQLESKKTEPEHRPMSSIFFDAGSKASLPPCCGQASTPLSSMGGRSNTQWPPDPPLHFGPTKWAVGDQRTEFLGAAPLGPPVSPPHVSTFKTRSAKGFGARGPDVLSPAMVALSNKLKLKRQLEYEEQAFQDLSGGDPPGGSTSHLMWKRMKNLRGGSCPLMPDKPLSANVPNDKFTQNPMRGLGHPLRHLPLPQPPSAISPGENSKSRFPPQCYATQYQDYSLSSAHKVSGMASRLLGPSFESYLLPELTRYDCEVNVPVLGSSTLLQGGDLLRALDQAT
The test system of series [3] is OIR mice. The series is described as follows: Retinal NV in the oxygen-induced retinopathy (OIR) mouse model. The series is classed as in vivo. As to conditions: for OIR NV%: Figure 14D. An excerpt: To characterize the contribution of these other HIF-regulated angiogenic factors to the promotion of ischemia-driven retinal NV in vivo, we used the classic oxygen-induced retinopathy (OIR) model characterized by Smith and colleagues ([35]). In stage 1 of this model, P7 pups are exposed to hyperoxia (75% O2) for 5 consecutive days (P7–P12), resulting in obliteration of the posterior retinal vasculature. In stage 2, pups (at P12) are returned to room air (21% O2). The resulting relative ischemia promotes the expression of angiogenic mediators that stimulate the development of retinal NV (peaking at P17; Figure 2A). […]
(§5) Animal studies. Eight-week-old pathogen-free female C57BL/6 mice were obtained from The Jackson Laboratory (JAX). Timed pregnant C57BL/6 mice were obtained from Charles River Laboratories. Mice heterozygous for HIF-1α have been previously described (2). Mice heterozygous for HIF-2α (strain number: 003266; common name: EPAS1 KO) were purchased […]
(§6) OIR mouse model. OIR experiments were performed as previously described (1, 3). Briefly, C57BL/6 mice were placed in 75% O2 on P7. On P12, the mice were returned to room air and were […]
(§7) (or vehicle) by intravitreal injection. Mice with body weight less than 6 g at P17 were excluded […]
(§8) from analysis. Data were collected from both males and females and the results were combined since there was no apparent difference between sexes. Representative images for selected time points from a minimum of three independent experiments are shown. Data from 3-8 pups were obtained at each time point. […]
(§9) Intraperitoneal (IP) injections. […]
(§10) intraperitoneally using an insulin syringe in OIR pups. […]
(§11) the peritoneal cavity of neonatal C57BL/6 mice and STZ mice at indicated times, and the retinal vasculature and lysates for WB and qPCR were assessed at P17.
(§12) Intraocular injections. Intravitreal injections were performed with a PLI-100A Pico-liter Microinjector (Warner Instruments, Harvard Bioscience) using pulled-glass micropipettes. Each micropipette was calibrated to deliver a 1 μl volume on depression of a foot switch. The mice were anesthetized with a ketamine (100 mg/kg) and xylazine (5mg/kg) mixture, and under a dissecting microscope, the sharpened tip of the micropipette was passed through the sclera just posterior to the limbus into the vitreous cavity and the foot switch was depressed, which caused fluid to […]
penetrate into the vitreous space. […]
mice for vascular permeability test, retinal vasculature, and lysates for WB and qPCR analysis.
Immunoﬂuorescence assays. Details for antibodies are provided in Supplemental Table 1.
Immunofluorescence assays in retinal organoids and mouse retinal tissues were performed as previously described (4). Briefly, mice were sacrificed using CO2 asphyxiation, and the eyes were enucleated and fixed with a solution of 4% paraformaldehyde in PBS (Thermo Scientific™) for two hours at RT, followed by washing with PBS for 10 minutes in a shaker. Retinas were isolated and incubated in 0.5% BSA solution overnight at 4 °C. Retinas were then washed with PBS 3 times for 10 minutes in the shaker and stained with isolectin B4 (Invitrogen; 1:200 dilution in PBS) overnight at 4 °C. After washing 3 times for 10 minutes each in the shaker, the retinas were mounted. Images were captured with Zeiss fluorescent microscope. Eight fields per eye (2 fields per petal) including area of neovascularization were selected and fluorescence intensity was measured by ImageJ software. […]
The eyes were enucleated and immediately immersed in 4% (wt/vol) paraformaldehyde for 2 hours at room temperature. Retinas were isolated and wholemounts prepared on clean glass slides and mounted vitreous side up under coverslips with antifade medium (Vectashield; Vector Laboratories, Burlingame, CA). Images were captured by Zeiss fluorescent microscope or confocal microscopy and fluorescence was quantified by the image J software (National Institutes

Series [4] deals with HIF-regulated angiogenic mediators. The series is described as follows: mRNA expression of HIF-regulated vasoactive mediators in OIR mouse retina (qPCR). The series is classed as in vivo. Here is the method:
(§13) Reverse transcription and quantitative real-time PCR. Total RNA was isolated from cultured cells or retinas with PureLinkTM RNA Mini Kit (Invitrogen #12183025), and cDNA was prepared with MuLV Reverse Transcriptase (Applied Biosystems). Quantitative real-time PCR was performed with Power SYBR Green PCR Master Mix (Applied Biosystems) and MyiQ Real-Time PCR Detection System (Bio-Rad). Normalization was done using cyclophilin A for mouse tissue and human cell lines. Primers are listed in Supplemental Table 2. […]
as §5, §6, §7, §8, §9, §10, §11, §12
Background: In qPCR the cycle at which signal appears reflects the starting amount.

For series [5], the system named is HIF-regulated vasoactive mediators. The series is described as follows: mRNA expression of HIF-regulated vasoactive mediators in retina of STZ-induced diabetic mice (qPCR). It counts as in vivo, mouse. Here is the method: as §13
STZ-induced diabetes mouse model. 8-to-10 week-old male mice received an IP injection of STZ at 40 mg/kg of body weight in 0.1M of citrate buffer (pH 4.5) for 5 consecutive days. Normal chow and 10% sucrose water were provided during this period. 10% sucrose was discontinued and replaced with regular water on experimental day 6. Blood glucose was measured on experimental day 28 after 16 hours fasting and mice with blood glucose level > 250 mg/dL were considered […]
as §9

The subject of series [6] is STZ-induced diabetic mice. The series is described as follows: Vascular permeability by Evans blue tracer method in STZ mice. As to conditions: digoxin treatment, mice hyperglycemic for 6 months. It counts as in vivo, mouse. Here is the method:
STZ-induced diabetes mouse model. 8-to-10 week-old male mice received an IP injection of STZ at 40 mg/kg of body weight in 0.1M of citrate buffer (pH 4.5) for 5 consecutive days. Normal chow and 10% sucrose water were provided during this period. 10% sucrose was discontinued and replaced with regular water on experimental day 6. […]
Intraocular injections. Intravitreal injections were performed with a PLI-100A Pico-liter Microinjector (Warner Instruments, Harvard Bioscience) using pulled-glass micropipettes. Each micropipette was calibrated to deliver a 1 μl volume on depression of a foot switch. […]
Images were captured with Zeiss fluorescent microscope. Eight fields per eye (2 fields per petal) including area of neovascularization were selected and fluorescence intensity was measured by ImageJ software. […]
The eyes were enucleated and immediately immersed in 4% (wt/vol) paraformaldehyde for 2 hours at room temperature. […] Images were captured by Zeiss fluorescent microscope or confocal microscopy and fluorescence was quantified by the image J software (National Institutes […]
of Health, Bethesda, MD). Blinded quantification of the number of leaking vessels was performed by manual counting of major leakage from capillaries from retinas of each group. […] Random fields were chosen from retinas where leakages were absent to determine baseline fluorescence that arise from capillaries. […]

The mark [7] stands for this setting: OIR mice P17, Digoxin i.p. 2mg/kg at P12, NON-OIR about 1, replicates, Figure 2C, 2 mg/kg.
Where [8] appears, read: digoxin 2 mg/kg i.p. at P12, P17.
Setting [9] is: STZ mice + Digoxin, control about 1, replicates, Figure 4F.

Several values for one entry are separate records, joined by “and”; a condition that tells them apart may be missing. Equal entries are not always repeated. Residues, ends and D or L forms follow the SMILES beside them. *: point of attachment. Cbz = O=C(OCc1ccccc1)*

With `CC(C)C[C@@H](C=O)NC(=O)[C@H](CC(C)C)NC(=O)[C@H](CC(C)C)NC(=O)OCc1ccccc1` [MG-132, reference compound] (Cbz-Leu-Leu-Leu-aldehyde), the “effect of pretreatment on 32-134D inhibition of HIF-1α accumulation” value in series [1] was “prevented the ability of 32-134D to block HIF-1α and HIF-2α protein accumulation”. The “effect of pretreatment on 32-134D inhibition of HIF-2α accumulation” value in series [2] is “prevented the ability of 32-134D to block HIF-1α and HIF-2α protein accumulation”.
On to `CO/C1=C\C(C)=C\[C@@H](C)[C@@H](O)[C@@H](C)C/C(C)=C/C=C/[C@H](OC)[C@@H]([C@@H](C)[C@@H](O)[C@H](C)[C@@]2(O)C[C@@H](O)[C@H](C)[C@@H](C(C)C)O2)OC1=O` [bafilomycin, reference compound], for which the “effect of pretreatment on 32-134D inhibition of HIF-1α accumulation” value in series [1] is given as “did not prevent 32-134D from inhibiting HIF-1α accumulation”.
`CC(C)C[C@H](NC(=O)[C@H](Cc1ccccc1)NC(=O)c1cnccn1)B(O)O` [bortezomib, reference compound]: the “effect of pretreatment on 32-134D inhibition of HIF-1α accumulation” value in series [1] was “corroborated”.
Turning to `C[C@H]1O[C@@H](O[C@H]2[C@@H](O)C[C@H](O[C@H]3[C@@H](O)C[C@H](O[C@H]4CC[C@@]5(C)[C@H](CC[C@@H]6[C@@H]5C[C@@H](O)[C@]5(C)[C@@H](C7=CC(=O)OC7)CC[C@]65O)C4)O[C@@H]3C)O[C@@H]2C)C[C@H](O)[C@@H]1O` [digoxin, reference compound], the “neovascular area (%)” value in series [3] (OIR mice at P17, single i.p. digoxin 2 mg/kg at P12, individual values, Figure 2A) is 0.786% and 0.8973% and 1.637% and 0.108% and 0.7093% and 1.719%. The “retinal NV in the OIR model (in words)” value in series [3] (digoxin 2 mg/kg single i.p. at P12, read at P17) is “prevented retinal NV”. The “Vegfa mRNA” value in series [4] (OIR mice P17, Digoxin i.p. 2mg/kg at P12, NON-OIR about 1, replicates, Figure 2B, 2 mg/kg) is 4.361 and 3.814 and 4.0024. Besides, in series [4] (setting [7]), the “Angpt2 mRNA” value was 1.359 and 1.263 and 1.386; the “Angptl4 mRNA” value was 1.389 and 1.31 and 1.599; the “Pdgfb mRNA” value was 3.611 and 3.067 and 2.999; the “Ptprb mRNA” value was 0.8633 and 0.7662 and 0.7639. For the same molecule, the “Serpine1 mRNA” value in series [4] (setting [7]) is 13.6912 and 13.3012 and 10.8019. In addition, in series [4] (setting [8]), the “expression of VEGF in OIR mice (in words)” value is “only modestly inhibiting the expression of VEGF” and the “expression of other vasoactive genes in OIR mice (in words)” value is “modest reduction”. Also, in series [5] (setting [9]), the “Angptl4 mRNA” value is 0.6214 and 1.778 and 1.462; the “Vegfa mRNA” value is 0.79 and 0.8827 and 0.5987. Further, the “Vegf and Angptl4 mRNA expression in STZ mice (in words)” value in series [5] (digoxin treatment) is “decrease in Vegf and Angptl4 mRNA expression to levels similar to those in nondiabetic mice”. Also, the “vascular permeability in STZ mice (in words)” value in series [6] is given as “decreased vascular permeability”.
As for “aflibercept: FDA-approved anti-VEGF therapy for DME and PDR [reference compound]”, the “OIR NV%” value in series [3] (100ng i.v., individual values) was 10.6252% and 10.4463% and 8.931% and 10.009% and 8.751% and 10.316%; in series [3] (200ng i.v., individual values), 6.75% and 9.52% and 8.9161% and 6.123% and 11.2235% and 10.084%; in series [3] (400ng i.v., individual values) it was 2.501% and 5.995% and 9.1174% and 1.799% and 6.421% and 2.903%.
